In patent US9693563B2, “Boron-silane polyether complex” (3M INNOVATIVE PROPERTIES COMPANY, priority 2013, dated 2017):

Assay: Electrical conductivity of borax, silane polyether and borax-SPE complex solutions
Type: physicochemical
Conditions: for Conductivity: 25° C., 20 ml solution
Method: Electrical conductivity is an effective quantitative tool to study complex formation in water for the system of a weak acid and a weak base. In the current study, the silane polyether acts as the weak acid (pH around 6) and borax acts as the weak base (pH around 9). The following analyses were carried out at 25° C. using a 20 ml solution of borax or SPE-1. Conductivity was measure at 45 minutes (immediately after complexation). The results are reported in Table 4a in units of microSiemens per centimeter (μS/cm).
The electrical conductivity of 0.025 M solutions of borax-SPE complex were prepared at various molar ratios of borax to silane polyether (B:S). The following analyses were carried out at 25° C. using a 20 ml solution. Conductivity was measure at 45 minutes and again after 24 hours to assess the stability of the complex.

O=BOB(O)OB(O)OB=O [Borax, borax (Na2B4O7.10H2O)]
Conductivity (0.0005M): 133 μS/cm
Conductivity (0.001M): 260 μS/cm
Conductivity (0.005M): 853 μS/cm
Conductivity (0.01M): 1225 μS/cm
Conductivity (0.05M): 4530 μS/cm
Conductivity (0.1M): 9000 μS/cm
pH (weak acid / weak base in water): around 9
